System: interstitial cells prepared from the femur bone marrow of a normal rat
Experiment: Osteogenesis promoting effect: alkaline phosphatase activity in cultured rat bone marrow interstitial cells
Type: cell-based
Conditions: test compound 10^−5 M, added from 2nd day of culture, cultured additional 5 days; mean ± S.E. (n = 4); control 0.150 ± 0.009; ** p < 0.01 vs control
Experimental: Osteogenesis promoting effect:
Using the interstitial cells prepared from the femur bone marrow of a normal rat, an alkaline phosphatase activity was measured as an index of osteogenesis. Briefly, according to the method of Maniatopoulos et al. [Cell Tissue Research, volume 254, P.317 (1988)], the interstitial cells were prepared from the femur bone of a Sprague-Dawley male rat, 7 weeks of age, and cultured in an α-MEM (minimum essential medium) solution containing dexamethasone (10^−7M) and β-glycerophosphoric acid (10^−2M) in order to generate calcified bony tissue. One week later, the confluent primary cells were treated with 0.25% trypsin-0.2% EDTA solution, recovered, and subcultured on a culture plate at a cell density of […], (culture day 0). From the 2nd day of the culture, a test compound (10^−5 M) was added to the above culture solution, and cultured for additional 5 days. The cells were washed with a phosphate buffer, and after addition of 0.2% Nonidet P-40, they were homogenized and centrifuged at 3,000 rpm for 10 minutes. The supernatant was measured for an alkaline phosphatase activity according to the method of Lowry et al. [Journal of Biological Chemistry, volume 207, P.19 (1954)]. […] Statistical analysis was performed by means of the Student's t-test.

| SMILES | Alkaline phosphatase activity (A405) |
| --- | --- |
| C[C@@H]1S[C@@H](C(=O)Nc2ccc(CC3SC(=O)NC3=O)cc2)Cc2cc3c(cc2C1=O)OCO3 (stereo partly drawn) [Example no. 1, (2R,4S)-N-[4-(2,4-Dioxothiazolidin-5-yl-methyl)phenyl]-1,2,4,5-tetrahydro-7,8-methylenedioxy-4-methyl-5-oxo-3-benzothiepine-2-carboxamide] | 0.489 ± 0.050** A405 |
| C[C@@H]1S[C@@H](C(=O)Nc2ccc(CN3CCOCC3)cc2)Cc2cc3c(cc2C1=O)OCO3 [Example no. 4, (2R,4S)-N-[4-(4-Morpholinylmethyl)phenyl]-1,2,4,5-tetrahydro-7,8-methylenedioxy-4-methyl-5-oxo-3-benzothiepine-2-carboxamide] | 0.394 ± 0.036** A405 |
| C[C@@H]1S[C@@H](C(=O)Nc2ccc(CC3OC(=O)NC3=O)cc2)Cc2cc3c(cc2C1=O)OCO3 (stereo partly drawn) [Example no. 10, (2R,4S)-N-[4-(2,4-Dioxo-oxazolidin-5-yl-methyl)phenyl]-1,2,4,5-tetrahydro-7,8-methylenedioxy-4-methyl-5-oxo-3-benzothiepine-2-carboxamide] | 0.535 ± 0.069** A405 |
| C[C@@H]1S[C@@H](C(=O)Nc2ccc(Cn3oc(=O)[nH]c3=O)cc2)Cc2cc3c(cc2C1=O)OCO3 [Example no. 11, (2R,4S)-N-[4-(3,5-Dioxo-1,2,4-oxadiazolidin-2-ylmethyl)phenyl]-1,2,4,5-tetrahydro-7,8-methylenedioxy-4-methyl-5-oxo-3-benzothiepine-2-carboxamide] | 0.399 ± 0.069** A405 |

— patent publication US6531604B2, “Benzothiepine derivatives, their production and use” (Takeda Chemical Industries, Ltd., priority 1998, dated 2003)
